Results from US11116760B2 (Gilead Sciences, Inc., priority 2018, dated 2021).

What follows are compounds tested against α4β7 integrin (Homo sapiens (Human), UniProt P13612+P26010) (assay: α4β7 Integrin Cell Capture Assay). Conditions: Table 2; capture of α4β7 expressing RPM18866 cells on MadCAM-1 extracellular domain-coated plate.
Type: cell-based

Chain of α4β7 integrin (P13612 34-1032): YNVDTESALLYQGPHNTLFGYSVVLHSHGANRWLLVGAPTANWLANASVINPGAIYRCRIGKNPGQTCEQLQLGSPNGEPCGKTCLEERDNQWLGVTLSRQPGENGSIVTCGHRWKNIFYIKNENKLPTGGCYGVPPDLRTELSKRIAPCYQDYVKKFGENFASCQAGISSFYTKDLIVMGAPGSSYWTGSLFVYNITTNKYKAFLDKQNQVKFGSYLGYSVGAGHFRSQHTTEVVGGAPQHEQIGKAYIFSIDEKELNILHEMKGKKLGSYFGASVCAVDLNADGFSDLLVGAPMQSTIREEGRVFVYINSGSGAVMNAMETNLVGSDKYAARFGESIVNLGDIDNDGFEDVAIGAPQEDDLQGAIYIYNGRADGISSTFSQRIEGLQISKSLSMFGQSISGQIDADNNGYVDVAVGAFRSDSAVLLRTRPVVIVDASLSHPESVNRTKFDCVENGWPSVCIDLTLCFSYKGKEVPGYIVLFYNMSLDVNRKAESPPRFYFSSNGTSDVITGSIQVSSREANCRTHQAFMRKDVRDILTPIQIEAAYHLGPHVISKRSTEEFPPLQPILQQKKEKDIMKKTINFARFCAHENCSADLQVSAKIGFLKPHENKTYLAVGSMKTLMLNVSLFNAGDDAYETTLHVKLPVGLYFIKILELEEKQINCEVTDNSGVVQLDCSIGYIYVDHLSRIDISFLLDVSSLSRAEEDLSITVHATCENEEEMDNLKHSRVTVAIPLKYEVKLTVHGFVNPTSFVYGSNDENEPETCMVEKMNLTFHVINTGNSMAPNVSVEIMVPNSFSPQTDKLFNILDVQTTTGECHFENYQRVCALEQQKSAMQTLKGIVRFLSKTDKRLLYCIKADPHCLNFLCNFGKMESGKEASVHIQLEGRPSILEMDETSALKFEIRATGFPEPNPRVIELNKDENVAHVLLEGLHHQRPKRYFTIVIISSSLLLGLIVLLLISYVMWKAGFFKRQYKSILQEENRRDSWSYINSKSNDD
Chain of α4β7 integrin (P26010 20-798): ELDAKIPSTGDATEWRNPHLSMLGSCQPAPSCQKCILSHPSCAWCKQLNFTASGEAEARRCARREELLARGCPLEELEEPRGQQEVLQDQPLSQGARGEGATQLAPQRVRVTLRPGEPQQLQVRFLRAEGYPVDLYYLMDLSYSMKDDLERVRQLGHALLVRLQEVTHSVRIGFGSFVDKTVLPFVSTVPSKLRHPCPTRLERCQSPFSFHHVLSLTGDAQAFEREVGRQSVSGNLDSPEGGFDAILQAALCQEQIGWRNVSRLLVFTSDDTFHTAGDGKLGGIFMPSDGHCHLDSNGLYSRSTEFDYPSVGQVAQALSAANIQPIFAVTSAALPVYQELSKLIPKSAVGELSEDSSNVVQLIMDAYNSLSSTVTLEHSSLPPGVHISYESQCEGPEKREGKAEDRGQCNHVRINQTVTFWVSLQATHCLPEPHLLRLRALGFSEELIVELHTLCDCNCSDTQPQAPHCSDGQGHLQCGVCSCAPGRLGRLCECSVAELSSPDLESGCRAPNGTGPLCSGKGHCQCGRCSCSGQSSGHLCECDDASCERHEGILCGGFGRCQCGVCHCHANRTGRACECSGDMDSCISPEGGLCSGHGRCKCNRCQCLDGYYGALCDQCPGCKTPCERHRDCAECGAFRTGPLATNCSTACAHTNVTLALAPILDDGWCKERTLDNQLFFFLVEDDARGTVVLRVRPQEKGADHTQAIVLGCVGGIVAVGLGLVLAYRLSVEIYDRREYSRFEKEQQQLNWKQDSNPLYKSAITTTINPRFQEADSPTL

| Compound | EC50 |
| --- | --- |
| COc1cc(F)c(C(F)(F)F)cc1-c1ccc(C[C@H](NC(=O)c2c(F)cccc2F)C(=O)O)c2cccnc12 [Example 215] | 29 nM |
| CC1(O)CCN(c2cc(F)c(C(=O)N[C@@H](Cc3ccc(-c4ccc(C#N)cc4Cl)c4ncccc34)C(=O)O)c(F)c2)CC1 [Example 216] | 31 nM |
| Cc1cc(C(F)(F)F)c(-c2ccc(C[C@H](NC(=O)c3c(F)cc(N4CCOCC4)cc3F)C(=O)O)c3cccnc23)c(=O)n1C [Example 217] | 2 nM |
| Cc1cc(C(F)(F)F)c(-c2ccc(C[C@H](NC(=O)c3c(F)cccc3F)C(=O)O)c3cccnc23)c(=O)n1C [Example 218] | 2.1 nM |
| CCOCc1cc(OC)c(-c2ccc(C[C@H](NC(=O)c3c(Cl)cc4cc[nH]c4c3Cl)C(=O)O)c3cccnc23)c(OC)c1 [Example 219] | 2.1 nM |
| N#Cc1ccc(-c2ccc(C[C@H](NC(=O)c3c(F)cc(N4CCC(F)(F)CC4)cc3F)C(=O)O)c3cccnc23)c(Cl)c1 [Example 220] | 45.2 nM |
| CC(=O)Cc1cc(F)c(C(=O)N[C@@H](Cc2ccc(-c3ccc(C#N)cc3Cl)c3ncccc23)C(=O)O)c(F)c1 [Example 221] | 48.2 nM |
| N#Cc1ccc(-c2ccc(C[C@H](NC(=O)c3c(F)cccc3OC(F)F)C(=O)O)c3cccnc23)c(Cl)c1 [Example 222] | 48.3 nM |
| Cc1ccnc(-c2ccc(C[C@H](NC(=O)c3c(F)cc(N4CCOC[C@@H]4C(F)(F)F)cc3F)C(=O)O)c3cccnc23)c1C(F)(F)F [Example 223] | 2.2 nM |
| CCOCc1cc(OC)c(-c2ccc(C[C@H](NC(=O)c3c(F)cc(CS(=O)(=O)c4ccccc4)cc3F)C(=O)O)c3cccnc23)c(OC)c1 [Example 224] | 2.2 nM |
| N#Cc1ccc(-c2ccc(C[C@H](NC(=O)c3c(Cl)cc4[nH]c(C5CC5)cc4c3Cl)C(=O)O)c3cccnc23)c(Cl)c1 [Example 225] | 53.7 nM |
| Cc1c(-c2ccc(C[C@H](NC(=O)c3c(F)cc(N4CCS(=O)(=O)[C@@H](C)C4)cc3F)C(=O)O)c3cccnc23)c(=O)n(C)c(=O)n1C [Example 226] | 1.1 nM |
| Cc1cc(C(F)(F)F)c(-c2ccc(C[C@H](NC(=O)c3c(F)cc(N4CCO[C@@H](C)[C@H]4C(F)(F)F)cc3F)C(=O)O)c3cccnc23)c(=O)n1C [Example 227] | 1.1 nM |
| N#Cc1ccc(-c2ccc(C[C@H](NC(=O)c3c(Cl)cc4cc(C5CC5)[nH]c4c3Cl)C(=O)O)c3cccnc23)c(Cl)c1 [Example 228] | 57.8 nM |
| N#Cc1ccc(-c2ccc(C[C@H](NC(=O)c3c(F)cc(NC4(C(F)(F)F)CC4)cc3F)C(=O)O)c3cccnc23)c(Cl)c1 [Example 229] | 60.5 nM |
| Cc1cc(C(F)(F)F)c(-c2ccc(C[C@H](NC(=O)c3c(F)cc(N4CCOC[C@@H]4C(F)(F)F)cc3F)C(=O)O)c3ccc(C(F)(F)F)nc23)c(=O)n1C [Example 231] | 0.9 nM |
| Cn1cc(-c2ccc(C[C@H](NC(=O)c3c(F)cc(N[C@H](c4ccc(Cl)cc4)C(F)(F)F)cc3F)C(=O)O)c3cccnc23)c(=O)n(C)c1=O [Example 232] | 0.9 nM |
| O=C(N[C@@H](Cc1ccc(-c2nccc(OC3CC3)c2C(F)(F)F)c2ncccc12)C(=O)O)c1c(F)cc(N2CCOC[C@@H]2C(F)(F)F)cc1F [Example 233] | 2.2 nM |
| CCOCc1cc(OC)c(-c2ccc(C[C@H](NC(=O)c3c(Cl)cc4[nH]ccc4c3Cl)C(=O)O)c3cccnc23)c(OC)c1 [Example 235] | 2.3 nM |

| Compound | EC50 |
| --- | --- |
| CC[C@@H](Nc1cc(F)c(C(=O)N[C@@H](Cc2ccc(-c3nc(C)c(C)c(C)c3C(F)(F)F)c3ncccc23)C(=O)O)c(F)c1)C(F)(F)F [Example 236] | 2.6 nM |
| Cc1c(-c2ccc(C[C@H](NC(=O)c3c(F)cc(N4CCS(=O)(=O)[C@H](C)C4)cc3F)C(=O)O)c3cccnc23)c(=O)n(C)c(=O)n1C [Example 237] | 2.6 nM |
| C[C@@H](Nc1cc(F)c(C(=O)N[C@@H](Cc2ccc(-c3nc(N)ccc3C(F)(F)F)c3ncccc23)C(=O)O)c(F)c1)C(F)(F)F [Example 238] | 2.8 nM |
| O=C(N[C@@H](Cc1ccc(NC(=O)c2c(Cl)cccc2Cl)c2ncccc12)C(=O)O)c1c(F)cccc1F [Example 239] | 77.9 nM |
| N#Cc1ccc(-c2ccc(C[C@H](NC(=O)c3c(Cl)cc4[nH]c(Cc5ccccc5)cc4c3Cl)C(=O)O)c3cccnc23)c(Cl)c1 [Example 240] | 79.2 nM |
| CC(=O)c1cc(F)c(C(=O)N[C@@H](Cc2ccc(-c3ccc(C#N)cc3Cl)c3ncccc23)C(=O)O)c(F)c1 [Example 241] | 80.1 nM |
| Cc1c(N(C)C)cn(C)c(=O)c1-c1ccc(C[C@H](NC(=O)c2c(F)cc(N3CCOC[C@@H]3C(F)(F)F)cc2F)C(=O)O)c2cccnc12 [Example 242] | 2.8 nM |
| Cc1cc(C(F)(F)F)c(-c2ccc(C[C@H](NC(=O)c3c(F)cc(N4C[C@H](C)OC[C@H]4C)cc3F)C(=O)O)c3cccnc23)c(=O)n1C [Example 243] | 2.9 nM |
| Cc1cc(C(F)(F)F)c(-c2ccc(C[C@H](NC(=O)c3c(F)cc(N4CC[C@@H]4C(F)(F)F)cc3F)C(=O)O)c3cccnc23)c(=O)n1C [Example 244] | 2.9 nM |
| N#Cc1ccc(-c2ccc(C[C@H](NC(=O)c3c(Cl)cc4[nH]ccc4c3Cl)C(=O)O)c3cccnc23)c(Cl)c1 [Example 246] | 34.3 nM |
| CC(C)c1cccnc1-c1ccc(C[C@H](NC(=O)c2c(F)cc(N3CCOC[C@@H]3C(F)(F)F)cc2F)C(=O)O)c2cccnc12 [Example 248] | 3 nM |
| Cc1cc(C(F)(F)F)c(-c2ccc(C[C@H](NC(=O)c3c(F)cc(N4C[C@@H](C)OC[C@H]4C)cc3F)C(=O)O)c3cccnc23)c(=O)n1C [Example 249] | 3 nM |
| Cc1cc(C(F)(F)F)c(-c2ccc(C[C@H](NC(=O)c3c(F)cc(N4CCOC[C@H]4CC(F)F)cc3F)C(=O)O)c3cccnc23)c(=O)n1C [Example 250] | 3.1 nM |
| CC[C@@H](Nc1cc(F)c(C(=O)N[C@@H](Cc2ccc(-c3nccc(C)c3C(F)(F)F)c3ncccc23)C(=O)O)c(F)c1)C(F)(F)F [Example 252] | 3.1 nM |
| CC[C@@H](Nc1cc(F)c(C(=O)N[C@H](Cc2ccc(-c3c(C(F)(F)F)cc(C)n(C)c3=O)c3ncccc23)C(=O)O)c(F)c1)C(F)(F)F [Example 253] | 3.2 nM |
| Cc1cc(C(F)(F)F)c(-c2ccc(C[C@H](NC(=O)c3c(F)cc(N4CCOC[C@H]4CC(F)(F)F)cc3F)C(=O)O)c3cccnc23)c(=O)n1C [Example 254] | 3.2 nM |
| Cc1nc(-c2ccc(C[C@H](NC(=O)c3c(F)cc(N4CCOC[C@H]4C(F)(F)F)cc3F)C(=O)O)c3cccnc23)c(=O)n(C)c1C [Example 255] | 3.4 nM |
| CC[C@@H](Nc1cc(F)c(C(=O)N[C@@H](Cc2ccc(-c3c(C(F)(F)F)cc(F)c4cccnc34)c3ncccc23)C(=O)O)c(F)c1)C(F)(F)F [Example 256] | 3.5 nM |
| Cc1cc(C(F)(F)F)c(-c2ccc(C[C@H](NC(=O)c3c(F)cc(N4CC5CCC4CO5)cc3F)C(=O)O)c3cccnc23)c(=O)n1C (some centres unmarked) [Example 257] | 3.5 nM |

| Compound | EC50 |
| --- | --- |
| CC[C@@H](Nc1cc(F)c(C(=O)N[C@@H](Cc2ccc(-c3nc(C)c4ccc(F)cc4n3)c3ncccc23)C(=O)O)c(F)c1)C(F)(F)F [Example 258] | 3.6 nM |
| Cc1c(N(C)C)cc(-c2ccc(C[C@H](NC(=O)c3c(F)cc(N4CCOC[C@@H]4C(F)(F)F)cc3F)C(=O)O)c3cccnc23)c(=O)n1C [Example 259] | 3.7 nM |
| Cc1cnc(-c2ccc(C[C@H](NC(=O)c3c(F)cc(N4CCOC[C@@H]4C(F)(F)F)cc3F)C(=O)O)c3cccnc23)c(C(F)(F)F)c1 [Example 260] | 3.8 nM |
| Cc1ccnc(-c2ccc(C[C@H](NC(=O)c3c(F)cc(N4CCOC[C@@H]4C(F)(F)F)cc3F)C(=O)O)c3cccnc23)n1 [Example 263] | 4 nM |
| CC[C@@H](Nc1cc(F)c(C(=O)N[C@@H](Cc2ccc(-c3ccc(F)c4cccnc34)c3ncccc23)C(=O)O)c(F)c1)C(F)(F)F [Example 264] | 4.1 nM |
| N#Cc1ccc(-c2ccc(C[C@H](NC(=O)c3c(F)cc(C(=O)N[C@H]4C[C@@H](O)C4)cc3F)C(=O)O)c3cccnc23)c(Cl)c1 [Example 267] | 77 nM |
| CC[C@@H](Nc1cc(F)c(C(=O)N[C@@H](Cc2ccc(-c3cc(N(C)C)c(C)n(C)c3=O)c3ncccc23)C(=O)O)c(F)c1)C(F)(F)F [Example 268] | 4.3 nM |
| CC[C@@H](Nc1cc(F)c(C(=O)N[C@@H](Cc2ccc(-c3c(C(F)(F)F)cc(C)n(C)c3=O)c3nc(C(F)(F)F)ccc23)C(=O)O)c(F)c1)C(F)(F)F [Example 269] | 4.4 nM |
| Cc1ccc(C(F)(F)F)c(-c2ccc(C[C@H](NC(=O)c3c(F)cc(N4CCOC[C@@H]4C(F)(F)F)cc3F)C(=O)O)c3cccnc23)n1 [Example 270] | 4.4 nM |
| Cc1ccnc(-c2ccc(C[C@H](NC(=O)c3c(F)cc(N4CCOC[C@@H]4C(F)(F)F)cc3F)C(=O)O)c3cccnc23)c1C [Example 271] | 4.5 nM |
| CCC(CC)Nc1cc(F)c(C(=O)N[C@@H](Cc2ccc(-c3c(C(F)(F)F)cc(C)n(C)c3=O)c3ncccc23)C(=O)O)c(F)c1 [Example 272] | 4.5 nM |
| Cc1c(N)cc(-c2ccc(C[C@H](NC(=O)c3c(F)cc(N4CCOC[C@@H]4C(F)(F)F)cc3F)C(=O)O)c3cccnc23)c(=O)n1C [Example 273] | 4.7 nM |
| Cc1nc(C)c(-c2ccc(C[C@H](NC(=O)c3c(F)cc(N4CCOC[C@@H]4C(F)(F)F)cc3F)C(=O)O)c3cccnc23)nc1C [Example 274] | 4.8 nM |
| CC[C@@H](Nc1cc(F)c(C(=O)N[C@@H](Cc2ccc(-c3nc(C)cc(OC)c3C(F)(F)F)c3ncccc23)C(=O)O)c(F)c1)C(F)(F)F [Example 275] | 4.8 nM |
| CC[C@@H](Nc1cc(F)c(C(=O)N[C@@H](Cc2ccc(-c3ncc4ccccc4c3C(F)(F)F)c3ncccc23)C(=O)O)c(F)c1)C(F)(F)F [Example 276] | 4.9 nM |
| Cc1cnc(-c2ccc(C[C@H](NC(=O)c3c(F)cc(N4CCOC[C@@H]4C(F)(F)F)cc3F)C(=O)O)c3cccnc23)c(N(C)C)c1 [Example 277] | 5.2 nM |
| N#Cc1ccc(-c2ccc(C[C@H](NC(=O)c3c(F)cc(N4CCCCC4)cc3F)C(=O)O)c3cccnc23)c(Cl)c1 [Example 278] | 82.2 nM |
| O=C(N[C@H](C(=O)O)[C@@H](O)c1ccc(-c2c(Cl)cc(F)cc2Cl)c2ncccc12)c1c(F)cccc1F [Example 279] | 82.4 nM |
